Values joined by “and” are separate entries in the source; they are usually repeats but may differ in a detail not shown here. Equal entries are not always repeated. Where two headings read alike, the source gives them in different places.
Legend:
Keap1 Kelch domain [1] = target: T1, Keap1 Kelch domain (Homo sapiens, UniProt Q14145); test: Differential scanning fluorimetry (DSF) thermal shift assay; assay type: binding; settings: 10 μM compound; Keap1 vehicle control Ti = 61.3 ± 0.3 °C
T1 construct: made in house
T1 sequence (Q14145 322-609): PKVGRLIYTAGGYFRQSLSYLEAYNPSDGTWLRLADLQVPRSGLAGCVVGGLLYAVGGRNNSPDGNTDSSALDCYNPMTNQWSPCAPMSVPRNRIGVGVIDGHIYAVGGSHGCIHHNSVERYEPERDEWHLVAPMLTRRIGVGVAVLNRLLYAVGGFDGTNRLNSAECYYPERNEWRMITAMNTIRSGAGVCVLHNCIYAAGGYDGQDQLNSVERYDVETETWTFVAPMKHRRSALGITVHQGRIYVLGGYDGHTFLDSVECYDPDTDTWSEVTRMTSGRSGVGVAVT
Method: The DSF assays were carried out according to the previously described method. Solutions of the Keap1 Kelch domain protein (5 μM final concentration) and the small molecule inhibitor (10 μM final concentration) were prepared in DPBS at pH 7.4 (10 % final DMSO concentration, 20 μL final volume) in an Eppendorf tube. The solution was centrifuged briefly (1500 rpm, 60 s) to remove any particulates and mix the samples, followed by a 30 min incubation at RT. The samples were loaded into Tycho NT.6 capillaries (Nanotemper) in triplicate and positioned in the […] instrument. […] The fluorescence ratio vs temperature was plotted and the inflection temperature (Ti) of the profile was recorded. Changes in inflection (ΔTi) for the inhibitors were calculated by subtracting the mean Ti of the Keap1 sample plus vehicle from the mean Keap1 plus binder value (n = 3).

NQO1 = NQO1 induction assay in Hepa1c1c7 cells; assay type: cell-based, mouse
Method: The method using Hepa1c1c7 cells has been described previously. Briefly, cells were seeded into 96-well plates (2 × 10^4 cells/200 μL per well) then incubated overnight at 37 °C. The cells were treated with compound (10 μM final concentration) or vehicle (final DMSO concentration 0.1 % DMSO) and incubated for a further 24 h or 48 h. The culture medium was aspirated and the cells treated with lysis buffer (50 μL per well, 0.1 % Tween 20 in 2 mM EDTA (pH 7.5)) then agitated for 15 min. Enzyme reaction mixture was added to each well (200 μL of 25 mM Tris buffer (pH 7.5) containing BSA (0.067 %), Tween20 (0.01 %), FAD (5 μM), G6P (1 mM), NADP (30 μM), G6P dehydrogenase (40 units), MTT (0.03 %), menadione (50 μM)) for 5 min then stop solution was applied (40 μL of 10 % SDS, final concentration 1.5 % SDS). Following brief agitation of the plate, the absorbance at 595 nm was measured. The background optical density was measured from wells containing tissue culture medium, lysis buffer, enzyme and stop solutions in the absence of Hepa1c1c7 cells. The change in background-corrected NQO1 activity (change in optical density) relative to the control was determined for each compound.

Nrf2 = Nrf2 luciferase reporter assay (MCF7 ARE-luciferase reporter cell line); assay type: cell-based; settings: Homo sapiens, MCF7 cells
Method: The induction of luciferase activity in the stably transfected MCF7 ARE-luciferase reporter cell line was measured using an adaptation of a published procedure. […] The cells were treated with compound or vehicle control (1 % final DMSO concentration) and incubated for a further 24 h. The culture medium was aspirated and the cells were washed with 100 μL per well PBS. The cells were lysed using 75 μL per well lysis buffer (0.2 % Triton X-100 in 25 mM Tris pH 7.5) under gentle agitation at rt for 30 min. The samples were transferred to 500 μL Eppendorf tubes and centrifuged at 10000 g for 5 min at 4 °C. 50 μL of supernatant from each sample were transferred to a new 96 well plate. 50 uL of working reagent (100 mM Tris pH 8.0, 5 mM MgCl2, 100 μM coenzyme A, 80 μM luciferin, and 5 mM ATP) were added to each well and the luciferase activity was measured.

Keap1 Kelch domain [2] = target: T1, Keap1 Kelch domain; test: Isothermal titration calorimetry (ITC); assay type: binding
Method: The measurements were performed as described previously. The small molecule inhibitor at 500 μM was titrated over 30 injections against 50 μM protein in buffer containing 25 mM HEPES (pH 7.4), 200 mM NaCl and 5 % DMSO. ITC experiments were performed using a MicroCal PEAQ-ITC instrument (Malvern Instruments, UK) at 25 °C with a stirring speed of 750 rpm. The first injection volume was of 0.3 μL followed by 29 injections of 1.3 μL and a gap of 120 s between each injection. Data analyses were performed as previously described. Each small molecule ITC measurement was performed in duplicate and resultant values obtained were averaged after independent analysis.

[3] = EXSY NMR of cis/trans rotamer exchange; assay type: physicochemical
Description: A series of pseudo-3D EXSY spectra were then acquired for compound 25 in D2O at temperatures of 280, 290, 300, 310 and 320 K (700 MHz, pulse sequence adapted from noesygpphpr and available on request, 1 s recycle delay, 13 mixing times from 5 to 1000 ms, acquisition times of 367 ms and 52 ms and spectra widths of 16 ppm and 3.5 ppm for direct and indirect dimensions respectively). Spectra were processed with linear prediction and cosine-squared window functions. For each temperature, methoxy singlet resonances were selected for analysis, and the intensities of the diagonal ( IAA and IBB ) and cross peaks ( IAB and IBA ) were fitted to Eq. (1) as a function of the mixing time, T, to determine the exchange rates kAB and kBA [41]. The ‘A’ state was defined to be the more shielded signal. Reported uncertainties were obtained from the non-linear fitting procedure.(1) (IAAIABIBAIBB)(T)=exp[(−R1,A−kABkBAkAB−R1,B−kBA)T]·(IA000IB0)
Exchange rates kAB and kBA were used to determine the relative populations pA=kBA/kAB+kBA and pB=kAB/kAB+kBA and were fitted to van't Hoff and Eyring equations (with unit transmission coefficient) to estimate the enthalpy and entropy changes and enthalpy and entropy of activation.

Keap1 = Keap1 (Homo sapiens, UniProt Q14145); test: Microscale thermophoresis (MST)
Chain of Keap1 (Q14145 322-609): as above
Method: Keap1 was labelled using the Protein Labelling Kit RED-NHS 2nd Generation (NanoTemper, München, Germany). Keap1 was diluted to 2 μM in RED-NHS Labelling Buffer. 10 μg of RED-NHS 2nd Generation labelling dye was freshly dissolved in 25 μL of DMSO to yield a concentration of 600 μM, then further diluted in RED-NHS Labelling Buffer to 300 μM. A volume of 20 μL of the 300 μM labelling dye was thoroughly mixed with 180 μL of 2 μM Keap1 and incubated at rt in a dark environment for 3 h. […] The sample was transferred to the centre of the resin bed in the B-column. 550 μL of Keap1 MST buffer was pipetted into the B-column and allowed to enter completely, followed by elution of the sample with 450 μL of Keap1 MST buffer and the flow-through was collected into a 1.5 mL Eppendorf tube. The collected sample was centrifuged at 15,000×g for 10 min at 4 °C to remove aggregates. Protein concentration in the collected sample was determined using the NanoDrop spectrophotometer. The sample was then tested in MST pre-test to evaluate the labelling quality.
Labelled Keap1 was diluted to 20 nM in Keap1 MST buffer prior to the reaction setup. […] An equal volume of 20 nM Keap1 was thoroughly mixed with each diluted sample and incubated for 30 min at rt. […] An equal volume of 2 nM Keap1 was mixed with each diluted sample and incubated at rt for 30 min. Incubated samples were loaded into Monolith NT.115 standard capillaries and measured using the Monolith NT.115^Pico instrument in triplicate. Parameters and measurements were set and controlled by the MO.Control software and collected datasets were analysed using the MO.Affinity Analysis software.

[4] = 1D 1H NMR lineshape analysis of cis/trans rotamer exchange
Method: Exchange was quantified using a two-site exchange model [40] implemented in Julia, where resonances were fitted to calculate chemical shifts of the two states and the exchange rates kAB and kBA between them. […] Reported uncertainties were determined from the standard errors of the fits.

[5] = D2O PBS buffer, pH* ~7.4, lineshape

DSF ΔTi (Keap1 Kelch domain [1]): 19.4 ± 0.4 °C
Kd (Keap1 Kelch domain [2]; 25 °C, read-out: ITC Kd): < 1 nM
Kd (Keap1 Kelch domain [2]; from ITC and MST data, read-out: Kd value for Keap1 Kelch domain (overall, lower limit of detection)): ≤ 1 nM
ΔHAB ([3]; D2O PBS buffer, pH* ~7.4, EXSY): 1.43 ± 0.311 kcal/mol
ΔH^‡AB ([3]; D2O PBS buffer, pH* ~7.4, EXSY): 16.6 ± 0.22 kcal/mol
ΔSAB ([3]; D2O PBS buffer, pH* ~7.4, EXSY): 16.8 ± 4.4 J/(K·mol)
ΔS^‡AB ([3]; D2O PBS buffer, pH* ~7.4, EXSY): -11.3 ± 3 J/(K·mol)
ΔS^‡AB ([3]; D2O, EXSY, Eyring (Fig. 4D)): −11.3 ± 3.0 J K^−1 mol^−1
ΔSAB ([3]; D2O, EXSY, van 't Hoff (Fig. 4C)): 16.8 ± 4.4 J K^−1 mol^−1
Kd (Keap1; 1 nM Keap1): 2.1 ± 0.5 nM
Kd (Keap1; 10 nM Keap1): 24.3 ± 4.7 nM
Occupancy of the more shielded state (A) ([4]; D2O PBS buffer (pH* ~7.4), 300 K): 0.606 ±0.003
Occupancy of the more shielded state (A) ([4]; D2O PBS buffer (pH* ~7.4), 310 K): 0.586 ±0.001
Occupancy of the more shielded state (A) ([4]; D2O PBS buffer (pH* ~7.4), 320 K): 0.567 ±0.001
ΔHAB [4, 5]: 1.561 ± 0.00526 kcal/mol
ΔH^‡AB [4, 5]: 17.4 ± 0.55 kcal/mol
ΔSAB [4, 5]: 18.19 ± 0.07
ΔS^‡AB [4, 5]: 0.65 ± 7.2
Occupancy of the more shielded state (A) ([4]; DMSO, 300 K): 0.486 ±0.003
Occupancy of the more shielded state (A) ([4]; DMSO, 310 K): 0.491 ±0.001
Occupancy of the more shielded state (A) ([4]; DMSO, 320 K): 0.496 ±0.0005
ΔH^‡AB ([4]; DMSO, lineshape, Eyring): 11.5 ± 3.11 kcal/mol
ΔS^‡AB ([4]; DMSO, lineshape, Eyring): -79 ± 41
ΔSAB ([4]; DMSO, lineshape, van't Hoff): -5.26 ± 0.17
Compound: COc1ccc(S(=O)(=O)N(CC(=O)O)c2ccc(N(Cc3nnn[nH]3)S(=O)(=O)c3ccc(OC)cc3)c3ccccc23)cc1 [Compound 25, N-(4-((N-((1H-tetrazol-5-yl)methyl)-4-methoxyphenyl)sulfonamido)naphthalen-1-yl)-N-((4-methoxyphenyl)sulfonyl)glycine]
specific enzyme activity of NQO1 (NQO1; 48-h incubation): increased
fold induction at 10 µM (NQO1; Mus musculus, Hepa-1c1c7, 10 μM): 2.01 ± 0.05
fold induction at 10 µM (Nrf2; 10 μM, 24 h): 1.48
fold induction at 100 µM (Nrf2; 100 μM (highest test concentration), read-out: peak fold induction of luciferase activity): 5.66
kA→B ([3]; D2O PBS buffer, 280 K, EXSY): 0.1633 ± 0.0072 s⁻¹
kA→B ([3]; D2O PBS buffer, 290 K, EXSY): 0.541 ± 0.013 s⁻¹
kA→B ([3]; D2O PBS buffer, 300 K, EXSY): 1.432 s⁻¹ and 1.432 ± 0.033 s⁻¹
kA→B ([3]; D2O PBS buffer, 310 K, EXSY): 3.26 ± 0.11 s⁻¹
kA→B ([3]; D2O PBS buffer, 320 K, EXSY): 8.78 ± 0.39 s⁻¹
kA→B ([4]; D2O PBS buffer, 300 K, lineshape): 1.432 s^-1 and 1.432 ±0.015^c s^-1
kA→B ([4]; D2O PBS buffer, 310 K, lineshape): 3.488 ±0.014^c s^-1
kA→B ([4]; D2O PBS buffer, 320 K, lineshape): 8.912 ±0.024^c s^-1
kA→B ([4]; DMSO, 300 K, lineshape): 3.059 ± 0.029 s⁻¹
kA→B ([4]; DMSO, 310 K, lineshape): 3.982 ± 0.007 s⁻¹
kA→B ([4]; DMSO, 320 K, lineshape): 8.749 ± 0.012 s⁻¹

From paper PMC12664080, “Tetrazole-containing naphthalene bis-sulfonamide Keap1-Nrf2 interaction inhibitors with unexpected binding modes” (Redox Biology, 2025)
